Among the data in ChEMBL document CHEMBL4130562, “Design, Synthesis, and Antibacterial Evaluation of Oxazolidinones with Fused Heterocyclic C-Ring Substructure” (ACS Med Chem Lett, 2017) are MIC values, retold here.

Common to all, as to assay type: functional
Assay [1] has as its system Staphylococcus aureus. The assay is described as follows: Antibacterial activity against Staphylococcus aureus ATCC 6538P by microbroth dilution method. A general note: In broth dilution the organism is exposed to a series of concentrations in liquid medium.
Another assay has as its system Enterococcus faecalis. The assay is described as follows: Antibacterial activity against Enterococcus faecalis ATCC 29212 by microbroth dilution method.
Assay [2] concerns Staphylococcus aureus. As to the kind of experiment: Antibacterial activity against Staphylococcus aureus ATCC 29213 by microbroth dilution method.
The subject of assay [3] is Staphylococcus aureus. As to the kind of experiment: Antibacterial activity against Staphylococcus aureus ATCC 33591 by microbroth dilution method.
For another assay, the system named is Streptococcus pyogenes. The assay is described as follows: Antibacterial activity against Streptococcus pyogenes ATCC 19615 by microbroth dilution method.
Assay [4] has as its system Staphylococcus aureus. The assay is described as follows: Antibacterial activity against linezolid-resistant Staphylococcus aureus by microbroth dilution method.
The subject of the next assay is Enterococcus faecium. The assay is described as follows: Antibacterial activity against Enterococcus faecium 19434 by microbroth dilution method.
The test system of assay [5] is Staphylococcus epidermidis. The assay is described as follows: Antibacterial activity against Staphylococcus epidermidis ATCC 14990 by microbroth dilution method.
A further assay deals with Haemophilus influenzae. The assay is described as follows: Antibacterial activity against Haemophilus influenzae ATCC 49247 by microbroth dilution method.
Another assay concerns Streptococcus pneumoniae. The assay is described as follows: Antibacterial activity against Streptococcus pneumoniae 55143 by microbroth dilution method.
The test system of assay [6] is Staphylococcus aureus. As to the kind of experiment: Antibacterial activity against methicillin-resistant Staphylococcus aureus 1201984 by microbroth dilution method.

In brackets after ≈: the same amount, converted by molar mass.

In the case of `O=C1COc2ccc(-c3ccc(N4C[C@H](CO)OC4=O)cc3F)nc2N1`, the MIC in the assay on Staphylococcus aureus [1] stood at 0.125 µg/mL (≈ 0.348 µM); with Enterococcus faecalis it was 0.25 µg/mL (≈ 0.696 µM); against Staphylococcus aureus [2], 0.5 µg/mL (≈ 1.39 µM); against Staphylococcus aureus [3] it was 0.125 µg/mL (≈ 0.348 µM); in the assay on Streptococcus pyogenes it was 0.25 µg/mL (≈ 0.696 µM); against Staphylococcus aureus [4], 4 µg/mL (≈ 11.1 µM). In addition, the MIC with Enterococcus faecium was 0.25 µg/mL (≈ 0.696 µM); in assay [5], less than 0.06 µg/mL; against Haemophilus influenzae, 1 µg/mL (≈ 2.78 µM); in the assay with Streptococcus pneumoniae, 0.25 µg/mL (≈ 0.696 µM); against Staphylococcus aureus [6], 0.25 µg/mL (≈ 0.696 µM).
Turning to `O=C1COc2ccc(-c3ccc(N4C[C@H](CNC(=O)C5CC5)OC4=O)cc3F)cc2N1`, the MIC is 0.25 µg/mL (≈ 0.588 µM) in the assay on Staphylococcus aureus [1]; 0.25 µg/mL (≈ 0.588 µM) in the assay with Enterococcus faecalis; 1 µg/mL (≈ 2.35 µM) with Staphylococcus aureus [2]; 1 µg/mL (≈ 2.35 µM) against Staphylococcus aureus [3]; 0.5 µg/mL (≈ 1.18 µM) against Streptococcus pyogenes; 4 µg/mL (≈ 9.4 µM) in the assay on Staphylococcus aureus [4]. The MIC against Enterococcus faecium was determined as 0.125 µg/mL (≈ 0.294 µM); in assay [5], 0.25 µg/mL (≈ 0.588 µM); in the assay on Haemophilus influenzae it was 1 µg/mL (≈ 2.35 µM); in the assay on Streptococcus pneumoniae it was 0.5 µg/mL (≈ 1.18 µM); in the assay with Staphylococcus aureus [6] it was 1 µg/mL (≈ 2.35 µM).
`O=C1CCOc2ccc(-c3ccc(N4C[C@H](CO)OC4=O)cc3F)cc2N1`: the MIC against Staphylococcus aureus [1] was 0.06 µg/mL (≈ 0.161 µM); against Enterococcus faecalis it was 0.25 µg/mL (≈ 0.671 µM); with Staphylococcus aureus [2], 0.125 µg/mL (≈ 0.336 µM); in the assay with Staphylococcus aureus [3], 0.5 µg/mL (≈ 1.34 µM); with Streptococcus pyogenes, 0.25 µg/mL (≈ 0.671 µM); against Staphylococcus aureus [4], 2 µg/mL (≈ 5.37 µM). For the same compound, the MIC against Enterococcus faecium turned out to be 0.125 µg/mL (≈ 0.336 µM); in assay [5], 0.06 µg/mL (≈ 0.161 µM); in the assay on Haemophilus influenzae it was 0.5 µg/mL (≈ 1.34 µM); in the assay on Streptococcus pneumoniae, 0.25 µg/mL (≈ 0.671 µM); against Staphylococcus aureus [6] it was 0.125 µg/mL (≈ 0.336 µM).
Regarding `O=C1COc2cc(-c3ccc(N4C[C@H](CO)OC4=O)cc3F)ccc2N1`, the MIC turned out to be 0.5 µg/mL (≈ 1.4 µM) in the assay with Staphylococcus aureus [1]; 1 µg/mL (≈ 2.79 µM) against Enterococcus faecalis; 0.5 µg/mL (≈ 1.4 µM) against Staphylococcus aureus [2]; 0.5 µg/mL (≈ 1.4 µM) against Staphylococcus aureus [3]; 2 µg/mL (≈ 5.58 µM) in the assay on Streptococcus pyogenes; 16 µg/mL (≈ 44.7 µM) in the assay on Staphylococcus aureus [4]. In addition, the MIC against Enterococcus faecium came out at 1 µg/mL (≈ 2.79 µM); in assay [5], 0.5 µg/mL (≈ 1.4 µM); against Haemophilus influenzae it was 0.25 µg/mL (≈ 0.698 µM); with Streptococcus pneumoniae, 2 µg/mL (≈ 5.58 µM); with Staphylococcus aureus [6], 0.5 µg/mL (≈ 1.4 µM).
On to `O=C1O[C@@H](CO)CN1c1ccc(-c2cnc3ccc(=O)[nH]c3c2)c(F)c1`, for which the MIC against Staphylococcus aureus [1] worked out at 0.25 µg/mL (≈ 0.704 µM); against Enterococcus faecalis, 0.5 µg/mL (≈ 1.41 µM); against Staphylococcus aureus [2], 0.5 µg/mL (≈ 1.41 µM); in the assay with Staphylococcus aureus [3], 0.25 µg/mL (≈ 0.704 µM); against Streptococcus pyogenes, 0.25 µg/mL (≈ 0.704 µM); in the assay with Staphylococcus aureus [4], 8 µg/mL (≈ 22.5 µM). Besides, the MIC against Enterococcus faecium stood at 0.125 µg/mL (≈ 0.352 µM); in [5], 0.25 µg/mL (≈ 0.704 µM); with Haemophilus influenzae it was 0.5 µg/mL (≈ 1.41 µM); in the assay on Streptococcus pneumoniae, 0.25 µg/mL (≈ 0.704 µM); in the assay on Staphylococcus aureus [6] it was 16 µg/mL (≈ 45 µM).
Turning to `O=C1COc2ccc(-c3ccc(N4C[C@H](CNC(=O)C(F)F)OC4=O)cc3F)cc2N1`, the MIC against Staphylococcus aureus [1] turned out to be 0.125 µg/mL (≈ 0.287 µM); in the assay with Enterococcus faecalis it was 0.06 µg/mL (≈ 0.138 µM); in the assay with Staphylococcus aureus [2], 0.5 µg/mL (≈ 1.15 µM); against Staphylococcus aureus [3], 0.5 µg/mL (≈ 1.15 µM); against Streptococcus pyogenes it was 0.25 µg/mL (≈ 0.574 µM); in the assay with Staphylococcus aureus [4], 4 µg/mL (≈ 9.19 µM). The MIC in the assay with Enterococcus faecium amounted to 0.06 µg/mL (≈ 0.138 µM); in assay [5], 0.125 µg/mL (≈ 0.287 µM); in the assay with Haemophilus influenzae it was 0.5 µg/mL (≈ 1.15 µM); against Streptococcus pneumoniae it was 0.25 µg/mL (≈ 0.574 µM); against Staphylococcus aureus [6] it was 0.5 µg/mL (≈ 1.15 µM).
Regarding `CC1(C)Oc2ccc(-c3ccc(N4C[C@H](CO)OC4=O)cc3F)cc2NC1=O`, the MIC turned out to be 0.125 µg/mL (≈ 0.324 µM) with Staphylococcus aureus [1]; 0.5 µg/mL (≈ 1.29 µM) against Enterococcus faecalis; 0.25 µg/mL (≈ 0.647 µM) in the assay with Staphylococcus aureus [2]; 1 µg/mL (≈ 2.59 µM) against Staphylococcus aureus [3]; 0.25 µg/mL (≈ 0.647 µM) with Streptococcus pyogenes; 16 µg/mL (≈ 41.4 µM) with Staphylococcus aureus [4]. Moreover, the MIC is 0.25 µg/mL (≈ 0.647 µM) with Enterococcus faecium; less than 0.06 µg/mL in assay [5]; 0.125 µg/mL (≈ 0.324 µM) in the assay with Haemophilus influenzae; 0.25 µg/mL (≈ 0.647 µM) against Streptococcus pneumoniae; 0.25 µg/mL (≈ 0.647 µM) in the assay on Staphylococcus aureus [6].
With `O=C1Cc2ccc(-c3ccc(N4C[C@H](CO)OC4=O)cc3F)cc2N1`, the MIC in the assay on Staphylococcus aureus [1] amounted to 0.25 µg/mL (≈ 0.73 µM); with Enterococcus faecalis it was 0.25 µg/mL (≈ 0.73 µM); in the assay with Staphylococcus aureus [2], 1 µg/mL (≈ 2.92 µM); against Staphylococcus aureus [3], 32 µg/mL (≈ 93.5 µM); against Streptococcus pyogenes, 0.125 µg/mL (≈ 0.365 µM); against Staphylococcus aureus [4], 4 µg/mL (≈ 11.7 µM). In addition, the MIC was 0.25 µg/mL (≈ 0.73 µM) against Enterococcus faecium; less than 0.06 µg/mL in assay [5]; 2 µg/mL (≈ 5.84 µM) in the assay on Haemophilus influenzae; 0.125 µg/mL (≈ 0.365 µM) against Streptococcus pneumoniae; 32 µg/mL (≈ 93.5 µM) with Staphylococcus aureus [6].
As for `CC(=O)NC[C@H]1CN(c2ccc(N3CCOCC3)c(F)c2)C(=O)O1` [LINEZOLID], the MIC worked out at 1 µg/mL (≈ 2.96 µM) against Staphylococcus aureus [1]; 1 µg/mL (≈ 2.96 µM) in the assay on Staphylococcus aureus [3]; 0.5 µg/mL (≈ 1.48 µM) against Streptococcus pyogenes; 16 µg/mL (≈ 47.4 µM) with Staphylococcus aureus [4]; 2 µg/mL (≈ 5.93 µM) with Enterococcus faecium; 4 µg/mL (≈ 11.9 µM) in the assay with Haemophilus influenzae. The MIC against Staphylococcus aureus [6] was determined as 1 µg/mL (≈ 2.96 µM).
Regarding `CN[C@H](CC(C)C)C(=O)N[C@H]1C(=O)N[C@@H](CC(N)=O)C(=O)N[C@H]2C(=O)N[C@H]3C(=O)N[C@H](C(=O)N[C@H](C(=O)O)c4cc(O)cc(O)c4-c4cc3ccc4O)[C@H](O)c3ccc(c(Cl)c3)Oc3cc2cc(c3O[C@@H]2O[C@H](CO)[C@@H](O)[C@H](O)[C@H]2O[C@H]2C[C@](C)(N)[C@H](O)[C@H](C)O2)Oc2ccc(cc2Cl)[C@H]1O` [VANCOMYCIN], the MIC with Enterococcus faecalis, with Streptococcus pyogenes and against Streptococcus pneumoniae was 2 µg/mL (≈ 1.38 µM) each time.
